What all share (assay type): functional
Experiment [1] concerns Rattus norvegicus. Briefly: % protection of glutamate pyruvate transaminase level, against thioacetamide-induced hepatic damage in rats, at 6 mg/Kg peroral dose.
Experiment [2] concerns Rattus norvegicus. Briefly: Tested for hepatoprotective activity against thioacetamide-induced hepatic damage in rat at 6 mg/kg, expressed as % protection afforded in GIDH levels.
In experiment [3] the test system is Rattus norvegicus. Briefly: % protection measured by glutamate oxaloacetate transaminase level, against thioacetamide-induced hepatic damage in rats, at 6 mg/Kg peroral dose.
For experiment [4], the system named is Rattus norvegicus. Briefly: Tested for hepatoprotective activity against thioacetamide-induced hepatic damage in rat at 6 mg/kg, expressed as % protection afforded in ALP levels.
For experiment [5], the system named is Rattus norvegicus. Briefly: Tested for hepatoprotective activity against thioacetamide-induced hepatic damage in rat at 6 mg/kg, expressed as % protection afforded in ACP levels.

On to `COC(=O)C(C(C)=O)=C1SCCS1`, for which the Protection was 0% in experiment [1]; 0% in experiment [2]; 7% in experiment [3]; 0% in experiment [4]; 9% in experiment [5].
As for `N#CC(C(=O)c1ccccc1)=C1SCCS1`, the Protection is 0% in experiment [1]; 0% in experiment [2]; 0% in experiment [3]; 31% in experiment [4]; 0% in experiment [5].
`CC(=O)C(C(C)=O)=C1SCCS1`: the Protection worked out at 40% in experiment [1]; 8% in experiment [2]; 67% in experiment [3]; 0% in experiment [4]; 0% in experiment [5].
Consider `N#CC(C(=O)c1ccc(Cl)cc1)=C1SCCS1`, for which the Protection in experiment [1], in experiment [2], in experiment [3], in experiment [4] and in experiment [5] was 0% in each case.
For `CCN(CC)C(=S)SC(C(=O)c1ccc(Cl)cc1)=C1SCCS1`, the Protection was 0% in experiment [1]; 5% in experiment [2]; 46% in experiment [3]; 0% in experiment [4]; 27% in experiment [5].
On to `CCOC(=O)C(C(=O)OCC)=C1SCCS1`, for which the Protection in experiment [1] worked out at 0%; in experiment [2], 2%; in experiment [3] it was 0%; in experiment [4], 0%; in experiment [5], 39%.
Take `COC(=O)C(C(C)=O)=C1SCCCS1`: the Protection in experiment [1] was 0%; in experiment [2], 68%; in experiment [3], 66%; in experiment [4], 14%; in experiment [5] it was 0%.
On to `CC(=O)C(C(C)=O)=C1SCCCS1`, for which the Protection in experiment [1] came to 0%; in experiment [2] it was 0%; in experiment [3], 27%; in experiment [4] it was 67%; in experiment [5], 0%.
With SILYMARIN, the Protection in experiment [1] amounted to 47.2%; in experiment [2], 39.8%; in experiment [3] it was 50.1%; in experiment [4], 47%; in experiment [5], 43.6%.
For `CCN(CC)C(=S)SC(C(=O)c1ccc(Br)cc1)=C1SCCCS1`, in that order: 0%, 0%, 38%, 0% and 20%.
With `CCOC(=O)C(C(=O)c1ccccc1)=C1SCCS1`, the Protection in experiment [1] is 0%; in experiment [2] it was 0%; in experiment [3] it was 0%; in experiment [4] it was 0%; in experiment [5] it was 29%.
As for `CCOC(=O)C(C#N)=C1SCCCS1`, the Protection in experiment [1] came out at 59%; in experiment [2] it was 0%; in experiment [3], 84%; in experiment [4] it was 76%; in experiment [5] it was 0%.
Regarding `N#Cc1c(SCCS)n[nH]c1N`, the Protection was determined as 0% in experiment [1]; 0% in experiment [2]; 0% in experiment [3]; 0% in experiment [4]; 9% in experiment [5].
For the molecule `CCN(CC)C(=S)SC(C(=O)c1ccc(Cl)cc1)=C1SCCCS1`, the Protection in experiment [1] is given as 0%; in experiment [2], 26%; in experiment [3] it was 85%; in experiment [4], 37%; in experiment [5], 6%.
As to `CCOC(=O)C(C(=O)c1ccccc1)=C1SCCCS1`, the Protection in experiment [1] came out at 45%; in experiment [2] it was 23%; in experiment [3], 35%; in experiment [4], 0%; in experiment [5], 7%.
Turning to `O=C(c1ccc(Cl)cc1)c1sc(=S)sc1SCc1ccccc1`, the Protection in experiment [1] was 39%; in experiment [2] it was 15%; in experiment [3], 80%; in experiment [4] it was 3%; in experiment [5] it was 4%.
For `N#Cc1c(-c2ccccc2)cc(S)sc1=N`, the Protection in experiment [1] came to 35%; in experiment [2] it was 47%; in experiment [3], 41%; in experiment [4] it was 30%; in experiment [5], 47%.
Consider `CCOC(=O)C(C#N)=C1SCCS1`, for which the Protection is given as 73% in experiment [1]; 46% in experiment [2]; 74% in experiment [3]; 11% in experiment [4]; 35% in experiment [5].
With `N#CC(C(=O)c1ccccc1)=C1SCCCS1`, the Protection in experiment [1], in experiment [2], in experiment [3], in experiment [4] and in experiment [5] was 0% in each case.
Consider `CC(C)OC(=O)C(C(=O)OC(C)C)=C1SCCS1` [ISOPROTHIOLANE], for which the Protection is reported as 77% in experiment [1]; 0% in experiment [2]; 92% in experiment [3]; 0% in experiment [4]; 0% in experiment [5].
For `CCN(CC)C(=S)SC(C(=O)c1ccc(C)cc1)=C1SCCS1`, the Protection is 0% in experiment [1]; 93% in experiment [2]; 56% in experiment [3]; 0% in experiment [4]; 70% in experiment [5].
Turning to `N#CC(C(=O)c1ccc(Cl)cc1)=C1SCCCS1`, the Protection is 0% in experiment [1]; 0% in experiment [2]; 63% in experiment [3]; 0% in experiment [4]; 0% in experiment [5].
`O=C(C(C(=O)c1ccccc1)=C1SCCS1)c1ccccc1`: the Protection in experiment [1] was found to be 0%; in experiment [2], 0%; in experiment [3] it was 0%; in experiment [4] it was 34%; in experiment [5] it was 8%.

For the origin of these results see ChEMBL document CHEMBL1127911, “Synthesis of sulphur heterocycles as hepatoprotectants : part I” (1994).
